Test results from patent publication US10329320B2, “Neuroactive steroids, compositions, and uses thereof” (Sage Therapeutics, Inc., priority 2015, dated 2019).

The compounds below were run against GABAA receptor ([35S]-TBPS binding, rat brain cortical membranes) (assay: Steroid inhibition of [35S]-TBPS binding (radioligand displacement)). Settings: 3 nM [35S]-TBPS, in the presence of 5 μM GABA.
Protocol: TBPS binding assays using rat brain cortical membranes in the presence of 5 μM GABA has been described (Gee et al, J. Pharmacol. Exp. Ther. 1987, 241, 346-353; Hawkinson et al, Mol. Pharmacol. 1994, 46, 977-985; Lewin, A. H et al., Mol. Pharmacol. 1989, 35, 189-194).
Briefly, cortices are rapidly removed following decapitation of carbon dioxide-anesthetized Sprague-Dawley rats (200-250 g). The cortices are homogenized in 10 volumes of ice-cold 0.32 M sucrose using a glass/teflon homogenizer and centrifuged at 1500×g for 10 min at 4° C. The resultant supernatants are centrifuged at 10,000×g for 20 min at 4° C. to obtain the P2 pellets. The P2 pellets are resuspended in 200 mM NaCl/50 mM Na—K phosphate pH 7.4 buffer and centrifuged at 10,000×g for 10 min at 4° C. This washing procedure is repeated twice and the pellets are resuspended in 10 volumes of buffer. Aliquots (100 μL) of the membrane suspensions are incubated with 3 nM [^35S]-TBPS and 5 μL aliquots of test drug dissolved in dimethyl sulfoxide (DMSO) (final 0.5%) in the presence of 5 μM GABA. The incubation is brought to a final volume of 1.0 mL with buffer. Nonspecific binding is determined in the presence of 2 μM unlabeled TBPS and ranged from 15 to 25%. Following a 90 min incubation at room temp, the assays are terminated by filtration through glass fiber filters (Schleicher and Schuell No. 32) using a cell harvester (Brandel) and rinsed three times with ice-cold buffer. Filter bound radioactivity is measured by liquid scintillation spectrometry. Non-linear curve fitting of the overall data for each drug averaged for each concentration is done using Prism (GraphPad). […] The concentration of test compound producing 50% inhibition (IC50) of specific binding and the maximal extent of inhibition (Imax) are determined for the individual experiments with the same model used for the overall data and then the means ±SEM.s of the individual experiments are calculated.
Various compounds are or can be screened to determine their potential as modulators of [^35S]-TBPS binding in vitro. These assays are or can be performed in accordance with the above discussed procedures.

`COC[C@]12CC[C@@](C)(O)C[C@@H]1CC[C@H]1[C@@H]3CC[C@H](C(=O)Cn4nc5cc(F)cc(F)c5n4)[C@@]3(C)CC[C@@H]12` [Compound 10] and `COC[C@]12CC[C@@](C)(O)C[C@H]1CC[C@H]1[C@@H]3CC[C@H](C(=O)Cn4nc5ccc(Cl)c(F)c5n4)[C@@]3(C)CC[C@@H]12` [Compound 24] cannot be ordered by IC50: < 10 nM for the first, < 10 nM for the second.

`COC[C@]12CC[C@@](C)(O)C[C@@H]1CC[C@H]1[C@@H]3CC[C@H](C(=O)Cn4nnc5cc(Cl)cnc54)[C@@]3(C)CC[C@@H]12` [Compound 12] and `COC[C@]12CC[C@@](C)(O)C[C@@H]1CC[C@H]1[C@@H]3CC[C@H](C(=O)Cn4nc5cc(Cl)cnc5n4)[C@@]3(C)CC[C@@H]12` [Compound 13] cannot be ordered by IC50: < 10 nM for the first, < 10 nM for the second.

Compared with `COC[C@]12CC[C@@](C)(O)C[C@H]1CC[C@H]1[C@@H]3CC[C@H](C(=O)Cn4cc5ccc(F)cc5n4)[C@@]3(C)CC[C@@H]12` [Compound 14], `COC[C@]12CC[C@@](C)(O)C[C@H]1CC[C@H]1[C@@H]3CC[C@H](C(=O)Cn4cc5cc(F)ccc5n4)[C@@]3(C)CC[C@@H]12` [Compound 17] is higher in IC50: < 10 nM for the first, 10 to 50 nM for the second. The first is the more potent here.

`COC[C@]12CC[C@@](C)(O)C[C@H]1CC[C@H]1[C@@H]3CC[C@H](C(=O)Cn4ncc5ccc(F)cc54)[C@@]3(C)CC[C@@H]12` [Compound 15] and `COC[C@]12CC[C@@](C)(O)C[C@H]1CC[C@H]1[C@@H]3CC[C@H](C(=O)Cn4ncc5cc(F)ccc54)[C@@]3(C)CC[C@@H]12` [Compound 16] cannot be ordered by IC50: < 10 nM for the first, < 10 nM for the second.

`COC[C@]12CC[C@@](C)(O)C[C@H]1CC[C@H]1[C@@H]3CC[C@H](C(=O)Cn4nnc5ccccc54)[C@@]3(C)CC[C@@H]12` [Compound 18] and `COC[C@]12CC[C@@](C)(O)C[C@H]1CC[C@H]1[C@@H]3CC[C@H](C(=O)Cn4nnc5ccc(OC)cc54)[C@@]3(C)CC[C@@H]12` [Compound 25] cannot be ordered by IC50: < 10 nM for the first, < 10 nM for the second.

Compared with `COC[C@]12CC[C@@](C)(O)C[C@H]1CC[C@H]1[C@@H]3CC[C@H](C(=O)Cn4cc5ccccc5n4)[C@@]3(C)CC[C@@H]12` [Compound 19], `COC[C@]12CC[C@@](C)(O)C[C@@H]1CC[C@H]1[C@@H]3CC[C@H](C(=O)Cn4cc5ccncc5n4)[C@@]3(C)CC[C@@H]12` [Compound 46] is higher in IC50: < 10 nM for the first, 10 to 50 nM for the second. The first is the more potent here.

First: COC[C@]12CC[C@@](C)(O)C[C@H]1CC[C@H]1[C@@H]3CC[C@H](C(=O)Cn4cc(SC)cn4)[C@@]3(C)CC[C@@H]12 [Compound 21]
Second: COC[C@]12CC[C@@](C)(O)C[C@@H]1CC[C@H]1[C@@H]3CC[C@H](C(=O)Cn4cc(C)cn4)[C@@]3(C)CC[C@@H]12 [Compound 60]
The IC50 of the first is lower: < 10 nM for the first, 100 to 500 nM for the second.

Compared with `COC[C@]12CC[C@@](C)(O)C[C@H]1CC[C@H]1[C@@H]3CC[C@H](C(=O)Cn4cc([S+](C)[O-])cn4)[C@@]3(C)CC[C@@H]12` (stereo partly drawn) [Compound 22], `COC[C@]12CC[C@@](C)(O)C[C@H]1CC[C@H]1[C@@H]3CC[C@H](C(=O)Cn4cc(SC)cn4)[C@@]3(C)CC[C@@H]12` [Compound 34] is lower in IC50: 100 to 500 nM for the first, 10 to 50 nM for the second. The second is the more potent here.

`COC[C@]12CC[C@@](C)(O)C[C@H]1CC[C@H]1[C@@H]3CC[C@H](C(=O)Cn4nnc5cc(OC)ccc54)[C@@]3(C)CC[C@@H]12` [Compound 26] and `COC[C@]12CC[C@@](C)(O)C[C@H]1CC[C@H]1[C@@H]3CC[C@H](C(=O)Cn4nc5ccc(OC)cc5n4)[C@@]3(C)CC[C@@H]12` [Compound 27] cannot be ordered by IC50: < 10 nM for the first, < 10 nM for the second.

`COC[C@]12CC[C@@](C)(O)C[C@H]1CC[C@H]1[C@@H]3CC[C@H](C(=O)Cn4nnc5c(OC)cccc54)[C@@]3(C)CC[C@@H]12` [Compound 28] and `COC[C@]12CC[C@@](C)(O)C[C@H]1CC[C@H]1[C@@H]3CC[C@H](C(=O)Cn4nnc5cccc(OC)c54)[C@@]3(C)CC[C@@H]12` [Compound 29] cannot be ordered by IC50: < 10 nM for the first, < 10 nM for the second.

First: COC[C@]12CC[C@@](C)(O)C[C@H]1CC[C@H]1[C@@H]3CC[C@H](C(=O)Cn4nc5cccc(OC)c5n4)[C@@]3(C)CC[C@@H]12 [Compound 30]
Second: COC[C@]12CC[C@@](C)(O)C[C@@H]1CC[C@H]1[C@@H]3CC[C@H](C(=O)Cn4cc5c(OC)cccc5n4)[C@@]3(C)CC[C@@H]12 [Compound 40]
The IC50 of the first is lower: < 10 nM for the first, 50 to 100 nM for the second.

First: COC[C@]12CC[C@@](C)(O)C[C@H]1CC[C@H]1[C@@H]3CC[C@H](C(=O)Cn4cc([S+](C)[O-])cn4)[C@@]3(C)CC[C@@H]12 (stereo partly drawn) [Compound 35]
Second: COC[C@]12CC[C@@](C)(O)C[C@@H]1CC[C@H]1[C@@H]3CC[C@H](C(=O)Cn4cc(OC)cn4)[C@@]3(C)CC[C@@H]12 [Compound 37]
The IC50 of the first is higher: > 500 nM for the first, 100 to 500 nM for the second.

First: COC[C@]12CC[C@@](C)(O)C[C@@H]1CC[C@H]1[C@@H]3CC[C@H](C(=O)Cn4ccnc4C#N)[C@@]3(C)CC[C@@H]12 [Compound 36]
Second: COC[C@]12CC[C@@](C)(O)C[C@H]1CC[C@H]1[C@@H]3CC[C@H](C(=O)Cn4cnc(F)c4)[C@@]3(C)CC[C@@H]12 [Compound 52]
The IC50 of the first is higher: 100 to 500 nM for the first, 10 to 50 nM for the second.

Compared with `COC[C@]12CC[C@@](C)(O)C[C@@H]1CC[C@H]1[C@@H]3CC[C@H](C(=O)Cn4cc(OC(C)C)cn4)[C@@]3(C)CC[C@@H]12` [Compound 38], `CCOc1cnn(CC(=O)[C@H]2CC[C@H]3[C@@H]4CC[C@H]5C[C@](C)(O)CC[C@]5(COC)[C@H]4CC[C@]23C)c1` [Compound 61] is higher in IC50: 50 to 100 nM for the first, 100 to 500 nM for the second.

`COC[C@]12CC[C@@](C)(O)C[C@@H]1CC[C@H]1[C@@H]3CC[C@H](C(=O)Cn4ncc5cccc(OC)c54)[C@@]3(C)CC[C@@H]12` [Compound 41] and `COC[C@]12CC[C@@](C)(O)C[C@@H]1CC[C@H]1[C@@H]3CC[C@H](C(=O)Cn4ncc5c(OC)cccc54)[C@@]3(C)CC[C@@H]12` [Compound 45] fall in the same range of IC50: 50 to 100 nM for the first, 50 to 100 nM for the second.

`COC[C@]12CC[C@@](C)(O)C[C@@H]1CC[C@H]1[C@@H]3CC[C@H](C(=O)Cn4cc5ccc(OC)cc5n4)[C@@]3(C)CC[C@@H]12` [Compound 42] and `COC[C@]12CC[C@@](C)(O)C[C@@H]1CC[C@H]1[C@@H]3CC[C@H](C(=O)Cn4cc5c(OC)cccc5n4)[C@@]3(C)CC[C@@H]12` [Compound 44] fall in the same range of IC50: 10 to 50 nM for the first, 10 to 50 nM for the second.

`COC[C@]12CC[C@@](C)(O)C[C@@H]1CC[C@H]1[C@@H]3CC[C@H](C(=O)Cn4ncc5cc(OC)ccc54)[C@@]3(C)CC[C@@H]12` [Compound 43] and `COC[C@]12CC[C@@](C)(O)C[C@@H]1CC[C@H]1[C@@H]3CC[C@H](C(=O)Cn4ncc5ccc(OC)cc54)[C@@]3(C)CC[C@@H]12` [Compound 49] fall in the same range of IC50: 50 to 100 nM for the first, 50 to 100 nM for the second.

Compared with `COC[C@]12CC[C@@](C)(O)C[C@@H]1CC[C@H]1[C@@H]3CC[C@H](C(=O)Cn4ncc5cccnc54)[C@@]3(C)CC[C@@H]12` [Compound 47], `COC[C@]12CC[C@@](C)(O)C[C@@H]1CC[C@H]1[C@@H]3CC[C@H](C(=O)Cn4cnc(F)c4)[C@@]3(C)CC[C@@H]12` [Compound 59] is higher in IC50: 10 to 50 nM for the first, 100 to 500 nM for the second. The first is the more potent here.

First: COC[C@]12CC[C@@](C)(O)C[C@@H]1CC[C@H]1[C@@H]3CC[C@H](C(=O)Cn4cc5ccc(OC)cc5n4)[C@@]3(C)CC[C@@H]12 [Compound 48]
Second: COC[C@]12CC[C@@](C)(O)C[C@@H]1CC[C@H]1[C@@H]3CC[C@H](C(=O)Cn4nnc5c(F)c(Cl)ccc54)[C@@]3(C)CC[C@@H]12 [Compound 51]
The IC50 of the first is higher: 50 to 100 nM for the first, < 10 nM for the second.

For `COC[C@]12CC[C@@](C)(O)C[C@H]1CC[C@H]1[C@@H]3CC[C@H](C(=O)Cn4nnnc4C)[C@@]3(C)CC[C@@H]12` [Compound 63], the IC50 was 100 to 500 nM.
